From the NIST ThermoML archive (doi:10.1016/j.jct.2018.10.015)

Experiment: xn = mol fraction of the nth substance listed
Conditions: 101.3 kPa, Liquid; for viscosity: Concentric cylinders viscometry; for mass density: Vibrating tube method

CCn1cc[n+](C)c1C.O=S(=O)([N-]S(=O)(=O)C(F)(F)F)C(F)(F)F + CCOC(=O)OCC
Conditions	mass density [kg/m3]	viscosity [mPa·s]
293.15 K, x1 = 0.1731	1150.1	3.168
293.15 K, x1 = 0.302	1242.2	6.382
293.15 K, x1 = 0.4028	1298.8	10.53
293.15 K, x1 = 0.4991	1343.7	16.14
293.15 K, x1 = 0.6093	1387	25.06
293.15 K, x1 = 0.7039	1418.8	35.42
293.15 K, x1 = 0.7951	1445.6	48.11
293.15 K, x1 = 0.8901	1470.6	64.72
293.15 K, x1 = 1	1495.8	89.88
298.15 K, x1 = 0.1731	1144.8	2.871
298.15 K, x1 = 0.302	1237.1	5.646
298.15 K, x1 = 0.4028	1293.7	9.149
298.15 K, x1 = 0.4991	1338.7	13.79
298.15 K, x1 = 0.6093	1382	21.02
298.15 K, x1 = 0.7039	1413.9	29.27
298.15 K, x1 = 0.7951	1440.8	39.24
298.15 K, x1 = 0.8901	1465.8	52.12
298.15 K, x1 = 1	1491	71.34
303.15 K, x1 = 0.1731	1139.5	2.615
303.15 K, x1 = 0.302	1232	5.032
303.15 K, x1 = 0.4028	1288.6	8.021
303.15 K, x1 = 0.4991	1333.7	11.9
303.15 K, x1 = 0.6093	1377.1	17.84
303.15 K, x1 = 0.7039	1409	24.52
303.15 K, x1 = 0.7951	1435.9	32.49
303.15 K, x1 = 0.8901	1461	42.65
303.15 K, x1 = 1	1486.3	57.64
308.15 K, x1 = 0.1731	1134.2	2.394
308.15 K, x1 = 0.302	1226.9	4.515
308.15 K, x1 = 0.4028	1283.6	7.089
308.15 K, x1 = 0.4991	1328.7	10.37
308.15 K, x1 = 0.6093	1372.2	15.31
308.15 K, x1 = 0.7039	1404.1	20.78
308.15 K, x1 = 0.7951	1431.1	27.23
308.15 K, x1 = 0.8901	1456.2	35.38
308.15 K, x1 = 1	1481.5	47.26
313.15 K, x1 = 0.1731	1128.9	2.201
313.15 K, x1 = 0.302	1221.7	4.076
313.15 K, x1 = 0.4028	1278.5	6.312
313.15 K, x1 = 0.4991	1323.7	9.113
313.15 K, x1 = 0.6093	1367.3	13.27
313.15 K, x1 = 0.7039	1399.3	17.81
313.15 K, x1 = 0.7951	1426.2	23.1
313.15 K, x1 = 0.8901	1451.4	29.72
313.15 K, x1 = 1	1476.7	39.24
318.15 K, x1 = 0.1731	1123.6	2.032
318.15 K, x1 = 0.302	1216.5	3.7
318.15 K, x1 = 0.4028	1273.5	5.657
318.15 K, x1 = 0.4991	1318.8	8.07
318.15 K, x1 = 0.6093	1362.4	11.6
318.15 K, x1 = 0.7039	1394.4	15.41
318.15 K, x1 = 0.7951	1421.4	19.8
318.15 K, x1 = 0.8901	1446.6	25.24
318.15 K, x1 = 1	1472	33
323.15 K, x1 = 0.1731	1118.3	1.882
323.15 K, x1 = 0.302	1211.3	3.375
323.15 K, x1 = 0.4028	1268.4	5.102
323.15 K, x1 = 0.4991	1313.8	7.196
323.15 K, x1 = 0.6093	1357.5	10.22
323.15 K, x1 = 0.7039	1389.6	13.45
323.15 K, x1 = 0.7951	1416.6	17.14
323.15 K, x1 = 0.8901	1441.8	21.66
323.15 K, x1 = 1	1467.2	28.05
328.15 K, x1 = 0.1731	1112.9	1.75
328.15 K, x1 = 0.302	1206.2	3.098
328.15 K, x1 = 0.4028	1263.4	4.633
328.15 K, x1 = 0.4991	1308.9	6.468
328.15 K, x1 = 0.6093	1352.5	9.095
328.15 K, x1 = 0.7039	1384.7	11.86
328.15 K, x1 = 0.7951	1411.8	15
328.15 K, x1 = 0.8901	1437	18.81
328.15 K, x1 = 1	1462.4	24.16

CCCCn1cc[n+](C)c1C.O=S(=O)([N-]S(=O)(=O)C(F)(F)F)C(F)(F)F + COC(=O)OC
Conditions	mass density [kg/m3]	viscosity [mPa·s]
293.15 K, x1 = 0.0976	1176	1.828
293.15 K, x1 = 0.1935	1242.1	3.518
293.15 K, x1 = 0.299	1291.6	6.864
293.15 K, x1 = 0.4011	1325.8	12.11
293.15 K, x1 = 0.4954	1350.1	19.5
293.15 K, x1 = 0.5974	1371	31.06
293.15 K, x1 = 0.6988	1387.8	47.37
293.15 K, x1 = 0.7987	1401.5	68.9
293.15 K, x1 = 0.9	1413.2	97.5
293.15 K, x1 = 1	1423.1	133.6
298.15 K, x1 = 0.0976	1170.1	1.686
298.15 K, x1 = 0.1935	1236.6	3.172
298.15 K, x1 = 0.299	1286.4	6.035
298.15 K, x1 = 0.4011	1320.8	10.38
298.15 K, x1 = 0.4954	1345.2	16.34
298.15 K, x1 = 0.5974	1366.2	25.45
298.15 K, x1 = 0.6988	1383	38.01
298.15 K, x1 = 0.7987	1396.8	54.23
298.15 K, x1 = 0.9	1408.5	75.54
298.15 K, x1 = 1	1418.5	101.82
303.15 K, x1 = 0.0976	1164.2	1.561
303.15 K, x1 = 0.1935	1231.1	2.876
303.15 K, x1 = 0.299	1281.2	5.352
303.15 K, x1 = 0.4011	1315.7	8.997
303.15 K, x1 = 0.4954	1340.2	13.88
303.15 K, x1 = 0.5974	1361.4	21.16
303.15 K, x1 = 0.6988	1378.3	31.01
303.15 K, x1 = 0.7987	1392.1	43.5
303.15 K, x1 = 0.9	1403.9	59.63
303.15 K, x1 = 1	1413.9	79.23
308.15 K, x1 = 0.0976	1158.2	1.445
308.15 K, x1 = 0.1935	1225.6	2.623
308.15 K, x1 = 0.299	1275.9	4.784
308.15 K, x1 = 0.4011	1310.7	7.873
308.15 K, x1 = 0.4954	1335.3	11.92
308.15 K, x1 = 0.5974	1356.5	17.83
308.15 K, x1 = 0.6988	1373.5	25.68
308.15 K, x1 = 0.7987	1387.4	35.46
308.15 K, x1 = 0.9	1399.2	47.91
308.15 K, x1 = 1	1409.3	62.74
313.15 K, x1 = 0.0976	1152.2	1.343
313.15 K, x1 = 0.1935	1220.1	2.405
313.15 K, x1 = 0.299	1270.7	4.306
313.15 K, x1 = 0.4011	1305.6	6.95
313.15 K, x1 = 0.4954	1330.4	10.34
313.15 K, x1 = 0.5974	1351.7	15.2
313.15 K, x1 = 0.6988	1368.8	21.55
313.15 K, x1 = 0.7987	1382.7	29.34
313.15 K, x1 = 0.9	1394.6	39.06
313.15 K, x1 = 1	1404.8	50.56
318.15 K, x1 = 0.0976	1146.2	1.25
318.15 K, x1 = 0.1935	1214.5	2.214
318.15 K, x1 = 0.299	1265.5	3.9
318.15 K, x1 = 0.4011	1300.6	6.184
318.15 K, x1 = 0.4954	1325.5	9.06
318.15 K, x1 = 0.5974	1346.9	13.1
318.15 K, x1 = 0.6988	1364	18.3
318.15 K, x1 = 0.7987	1378.1	24.58
318.15 K, x1 = 0.9	1390	32.32
318.15 K, x1 = 1	1400.2	41.38
323.15 K, x1 = 0.0976	1140.2	1.165
323.15 K, x1 = 0.1935	1209	2.046
323.15 K, x1 = 0.299	1260.3	3.553
323.15 K, x1 = 0.4011	1295.6	5.543
323.15 K, x1 = 0.4954	1320.6	8
323.15 K, x1 = 0.5974	1342.1	11.4
323.15 K, x1 = 0.6988	1359.3	15.71
323.15 K, x1 = 0.7987	1373.4	20.85
323.15 K, x1 = 0.9	1385.4	27.09
323.15 K, x1 = 1	1395.6	34.32
328.15 K, x1 = 0.0976	1133.9	1.091
328.15 K, x1 = 0.1935	1203.6	1.904
328.15 K, x1 = 0.299	1255.1	3.258
328.15 K, x1 = 0.4011	1290.5	5.017
328.15 K, x1 = 0.4954	1315.6	7.129
328.15 K, x1 = 0.5974	1337.2	10.03
328.15 K, x1 = 0.6988	1354.6	13.64
328.15 K, x1 = 0.7987	1368.7	17.91
328.15 K, x1 = 0.9	1380.8	23.04
328.15 K, x1 = 1	1391	28.91
